Test results taken from US20230126310A1 (priority 2020, published 2023).
Counter-ions that a name gives are not always drawn.

Test system: SARS-CoV-2
Settings: for % Inh. (% Inhibition of SARS-CoV-2): 10 µM

Row | Compound | % Inh. (% Inhibition of SARS-CoV-2) | also measured
1 | Cc1ccc(CC2(O)CCN(CCOc3ccc(O)cc3)CC2)cc1 [CO-101244] | 60.2% | –
2 | Cc1cc(-c2nc3cc(F)ccc3s2)ccc1NC(=O)[C@@H](N)CCCCN.Cl.Cl [phortress] | 67.1% | –
3 | O=c1oc(-c2ccc(C(F)(F)F)cc2)nn1Cc1cc(Cl)ccc1O [BMS-191011] | 52.3% | –
4 | CSc1ccccc1Nc1nc(N2CCNCC2)nc2c(NCC3CC3)ncnc12 [KHK-IN-1 (hydrochloride)] | 71.8% | –
5 | COc1cc2ncnc(Nc3ccc(Cl)cc3F)c2cc1OC [ZM-306416] | 77.9% | –
6 | Cc1ccc(NC(=O)c2cccc(C(C)(C)C#N)c2)cc1Nc1ccc2ncn(C)c(=O)c2c1 [AZ-628] | 99.6% | –
7 | O=C(Nc1ccccc1)N1CCN(c2nc(-c3ccccc3)ns2)CC1 [JNJ 1661010] | 93.8% | –
8 | CCc1ccccc1OC[C@@H](O)CN[C@H]1CCCc2ccccc21 [SR-59230A] | 57.3% | –
9 | C[C@]12CC[C@H]3[C@@H](CC[C@]4(O)C[C@@H](O)CC[C@]34C=O)[C@@]1(O)CC[C@@H]2C1=CC(=O)OC1 [Strophantidin] | 67.1% | –
10 | CCN(CC)CCCCNc1ncc2cc(-c3c(Cl)cccc3Cl)c(NC(=O)NC(C)(C)C)nc2n1 [PD-161570] | 108.1% | –
11 | COc1ccc(C[C@H]2NC[C@H](O)[C@H]2OC(C)=O)cc1 [anisomycin] | 88.1% | –
12 | COc1cc2c(cc1OC)CN(C(=O)/C=C/c1c(-c3ccccc3)n(C)c3ncccc13)CC2 [SIS3] | 99.3% | –
13 | Cc1nc(NC(=O)N2CCC[C@H]2C(N)=O)sc1-c1csc(C(C)(C)C)n1 [A66] | 54.4% | –
14 | Cc1ccc(Nc2ncc3c(n2)N(C)C(=O)N(c2cc(NC(=O)c4cccc(C(F)(F)F)c4)ccc2C)C3)cn1 [GNF-7] | 107.6% | –
15 | O=C1OC2(c3cc(I)c(O)c(I)c3Oc3c2cc(I)c(O)c3I)c2c(Cl)c(Cl)c(Cl)c(Cl)c21 [rose-bengal-lactone] | 57.6% | –
16 | O=C1/C(=C/c2ccccc2)C[C@@]2(O)[C@H]3Cc4ccc(O)c5c4[C@@]2(CCN3CC2CC2)[C@H]1O5 [BNTX] | 77.3% | –
17 | Cc1ccc(-c2nn(C(C)(C)C)c3ncnc(N)c23)cc1 [PP-1] | 121.9% | –
18 | COc1ccc(CC2NCCc3c2[nH]c2ccc(C)cc32)c(Cl)c1OC (stereo not shown) [LY266097] | 89.3% | –
19 | CSc1nc(-c2ccnc(NC(C)c3ccccc3)c2)c(-c2ccc(F)cc2)[nH]1 (stereo not shown) [ML-3403] | 50.3% | –
20 | N#Cc1ccc(N2N=C3c4ccc(C(=O)O)cc4CC[C@@H]3[C@@H]2C2CCCC2)cc1Cl [PF-03882845] | 58.6% | –
21 | Nc1ccc2ncnc(NCCc3ccc(Oc4ccccc4)cc3)c2c1 [QNZ (EVP4593)] | 95.8% | –
22 | I-BET151 (GSK1210151A) | 56.0% | –
23 | CC[N+](C)(CC)CCC[n+]1c(-c2ccccc2)c2cc(N)ccc2c2ccc(N)cc21.[I-].[I-] [propidium-iodide] | 69.7% | –
24 | CNc1cc2c(Nc3cccc(Br)c3)ncnc2cn1 [PD-158780] | 98.3% | –
25 | FC(F)(F)c1cc(CO[C@H]2CCCN[C@H]2c2ccccc2)cc(C(F)(F)F)c1 [L-733060] | 53.9% | –

Row | Compound | % Inh. (% Inhibition of SARS-CoV-2) | also measured
26 | O=C(NNc1nc2cc(F)ccc2n2cccc12)c1cnccn1 [SC144] | 108.7% | –
27 | COc1ccccc1C(=O)Nc1cccc(NC(=O)c2cccc(C)c2)c1 [ML-365] | 92.7% | –
28 | CNCc1ccc(C)c(NC(=O)c2ccc(Nc3nc(-c4ccccc4)c4ccccc4n3)cc2)c1 [BMS-833923 (XL139)] | 68.8% | –
29 | CCOc1cc(C(C)(C)C)ccc1C1=N[C@@](C)(c2ccc(Cl)cc2)[C@@](C)(c2ccc(Cl)cc2)N1C(=O)N1CCN(CCCS(C)(=O)=O)CC1 [RG7112 (RO5045337)] | 88.5% | –
30 | COc1ccc(NC(=O)c2ccc(-c3ccc(-c4noc(C)n4)cc3C)cc2)cc1OCCN(C)C [SB-216641] | 57.6% | –
31 | COc1cc2nc(C3CC3)nc(N3CCN(c4ccccc4OC)CC3)c2cc1OC [ML314] | 87.7% | –
32 | C=C1/C(=C\C=C2/CCC[C@]3(C)[C@@H]([C@H](C)/C=C/[C@H](C)C(C)(C)O)CC[C@@H]23)C[C@@H](O)C[C@@H]1O [Ercalcitriol] | 86.9% | –
33 | CC(C)C(C(=O)Nc1nccs1)c1ccc(Cl)cc1 (stereo not shown) [4-CMTB] | 87.1% | –
34 | O=S(=O)(NCCCCCCc1ccccc1)c1cccc2c(Cl)cccc12 [SC-9] | 83.4% | –
35 | COC(=O)Nc1ccc(-c2nc(N3CCOCC3)c3cnn(C4CCN(C(=O)OC)CC4)c3n2)cc1 [WYE-354] | 89.9% | –
36 | CCN1CCN(Cc2ccc(C(=O)Nc3ccc(C)c(Oc4ccc5c(c4)CC(=O)N5)c3)cc2C(F)(F)F)CC1 [DDR1-IN-1] | 77.6% | –
37 | COc1c(C)cnc(Cn2cc(C#CCC(C)(C)O)c3c(Cl)nc(N)nc32)c1C [EC-144] | 95.0% | –
38 | CCCCCCc1ccc(O)cc1O.Nc1c2ccccc2nc2ccccc12 [ACRISORCIN] | 61.7% | –
39 | O=C(Nc1ccccc1Br)N[C@@H]1CCN(c2ccc(C(F)(F)F)cn2)C1 [SB705498] | 64.6% | –
40 | COc1ccc(-c2csc(NC(=O)[C@H]3CCCCN3S(=O)(=O)c3ccc(C)cc3)n2)cc1 [ML-277] | 99.3% | –
41 | Nc1nc(OCC2CCCCC2)c2[nH]cnc2n1 [NU-2058] | 51.9% | –
42 | Fc1ccc(Cl)cc1-c1nc(Nc2ccncc2)c2nccnc2n1 [SD-208] | 55.1% | –
43 | CC(C)(NS(=O)(=O)c1ccc(Oc2ccc(F)cc2)cc1)C(=O)NO [CP-471474] | 86.9% | –
44 | COc1ccc2[nH]c3c(-c4cccc5ccccc45)nccc3c2c1 [SP-141] | 68.6% | –
45 | C=C[C@@]1(C)CC(=O)[C@]2(O)[C@@]3(C)[C@@H](O)CCC(C)(C)[C@@H]3[C@H](OC(=O)CCN(C)C)[C@H](OC(C)=O)[C@@]2(C)O1 [colforsin-daproate] | 80.3% | –
46 | Cc1cc(=O)oc2c(C=O)c(O)ccc12 [4-mu-8C] | 106.2% | –
47 | CCC(C)C1O[C@]2(C=C[C@@H]1C)C[C@@H]1CC(C/C=C(\C)[C@@H](OC3C[C@H](OC)[C@@H](OC4C[C@H](OC)[C@@H](O)[C@H](C)O4)[C@H](C)O3)[C@@H](C)/C=C/C=C3\COC4[C@H](O)C(C)=CC(C(=O)O1)[C@]34O)O2 (stereo partly shown) [ABAMECTIN (avermectin B1a)] | 108.9% | –
48 | verteporfin | 139.9% | –
49 | Cc1ccccc1C(=O)c1ccc(Nc2ccc(Br)cc2N)cc1Cl [EO-1428] | 66.1% | –
50 | CN1C/C=C/CCOc2cccc(c2)-c2ccnc(n2)Nc2cccc(c2)C1 [SB1317] | 56.5% | –

Row | Compound | % Inh. (% Inhibition of SARS-CoV-2) | also measured
51 | CC(C)(Cc1ccc2ccccc2c1)NC[C@@H](O)COc1cccc(Cl)c1C#N [NPS-2143 (SB262470)] | 67.3% | –
52 | CNC(=O)c1cccc(NC(=O)N2CCC(Oc3ccccc3Cl)CC2)c1 [A-939572] | 78.8% | –
53 | O=C1Nc2ccc(Cl)c3c2C1(CCCCN1CC=C(c2ccc(Cl)cc2)CC1)CCC3 (stereo not shown) [DR-4485] | 82.8% | –
54 | hemin | 62.9% | –
55 | CCC(=O)N1CCN(c2ccc(-n3c(=O)ccc4cnc5ccc(-c6cnc7ccccc7c6)cc5c43)cc2C(F)(F)F)CC1 [Torin 1] | 75.3% | –
56 | Cc1nc(C#Cc2ccnc(Cl)c2)c(C)n1-c1ccc(OC(F)(F)F)cc1 [CTEP (RO4956371)] | 59.7% | –
57 | Cc1c(NC(=O)OC[C@@H]2COCCN2)cn2ncnc(Nc3ccc4c(cnn4Cc4cccc(F)c4)c3)c12 [BMS-599626] | 76.4% | –
58 | Cc1cc(C)c(NC(=O)C2CC3CCC2C3)c(C)c1 (stereo not shown) [ML-213] | 69.5% | –
59 | NI-57 | 78.3% | –
60 | Nizofenone fumarate | 52.4% | –
61 | CC(=O)[C@@]12O[C@](C)(c3ccccc3)O[C@@H]1C[C@H]1[C@@H]3CCC4=CC(=O)CC[C@]4(C)[C@H]3CC[C@@]12C [algestone-acetophenide] | 96.0% | –
62 | COc1cc(Br)c(S(=O)(=O)Nc2ccc(Cl)c(O[C@@H]3CCN(C)C3)c2)cc1OC [SB-657510] | 101.1% | –
63 | Cc1[nH]nc2ccc(-c3cncc(OC[C@@H](N)Cc4ccccc4)c3)cc12 [A-674563] | 53.3% | –
64 | O=C(/C=C/c1ccc2ccccc2n1)c1ccncc1 [PFK-015] | 101.3% | IC50: 7.03 µM; pIC50: 5.15
65 | COc1cc(N2CCC(N)CC2)ccc1Nc1ncc(Cl)c(-c2c[nH]c3ccccc23)n1 [AZD3463] | 96.5% | –
66 | Cn1c(Nc2ccc(C(F)(F)F)cc2)nc2cc(Oc3ccnc(-c4ncc(C(F)(F)F)[nH]4)c3)ccc21 [RAF265 (CHIR-265)] | 93.2% | –
67 | O=C(CNC(=O)c1cccc(C(F)(F)F)c1)N[C@@H]1CCN(Cc2ccc(Cl)cc2)C1 [Teijin-compound-1] | 85.7% | –
68 | Cc1ccc(-c2csc(NC(=O)c3ccccc3)n2)c(C)c1 [INH1] | 89.8% | –
69 | COc1cccc(-c2cc(F)ccc2[C@H]2Cc3nc(N)nc(C)c3C(=O)N2)n1 [NVP-HSP990] | 100.4% | –
70 | CC(C)(N)c1cc(C(=O)N[C@@H]2CCc3ccc(Oc4ccnc5c4CCC(=O)N5)cc3C2)cc(C(F)(F)F)c1 [ML-786] | 105.5% | –
71 | COCc1c(-c2ccc(NC(=O)Nc3cc(C(F)(F)F)ccc3F)c(F)c2)c2c(N)ncnn2c1CN1CCOCC1 [ACTB-1003] | 97.7% | –
72 | O=C(O)[C@]1(Cc2cccc(Nc3nccs3)n2)CC[C@@H](Oc2cccc(Cl)c2F)CC1 [MK-5108 (VX-689)] | 77.9% | –
73 | CCOC(=O)N1CCC(=C2c3ccc(Cl)cc3CCc3cccnc32)CC1 [LORATADINE] | – | % Inh (% inhibition of virus infection) (comparative experiments, Examples 1 and 2): 91.4%
74 | NCC(=O)Nc1ccc(-n2nc(C(F)(F)F)cc2-c2ccc3c(ccc4ccccc43)c2)cc1 [AR-12] | 85.7% | –
